Test results from patent USRE40851E1, “3,3-diphenylpropylamines, their use and preparation” (Pfizer Health AB, priority 1992, dated 2009).
Counter-ions that a name gives are not always drawn.

Legend:
[1] = molecular target: muscarinic receptor (urinary bladder); assay: Muscarinic receptor binding, (−)3H-QNB competition, urinary bladder homogenate; conditions: guinea pig urinary bladder, 2 nM (−)3H-QNB, 25° C., 60 minutes
Experimental: (§1) The tissue preparations and the general methods used have been described in detail elsewhere for the parotid gland^1, urinary bladder^2, heart^3 and cerebral cortex^3, respectively. Male guinea pigs (250-400 g body weight) were killed by a blow on the neck and exsanguinated. The brain was placed on ice for dissection of the cerebral cortex (grey matter only). Urinary bladders, hearts and parotid glands were dissected in a Krebs-Henseleit buffer (pH 7.4) containing 1 mM phenyl methyl sulfonyl fluoride (PMSF, a protease inhibitor). Dissected tissues were homogenized in an ice-cold sodium-potassium phosphate buffer (50 mM, pH 7.4) containing 1 mM PMSF, using a Polytron PT-10 instrument (bladder, heart, parotid) and a Potter-Elvehjem Teflon homogenizer (cortex). All homogenates were finally diluted with the ice-cold phosphate/PMSF buffer to a final protein concentration of ≦0.3 mg/ml and immediately used in the receptor binding assays. Protein was determined by the method of Lowry et al. (1951)^4, using bovine serum albumin as the standard.
(§2) The muscarinic receptor affinities of the unlabelled compounds A to D identified above were derived from competition experiments in which the ability to inhibit the receptor specific binding of (−)^3H-QNB (1-quinuclidinyl[phenyl-4-^3H]benzilate, 32.9 Ci/mmole) was monitored as previously described^3,5. Each sample contained 10 μl of (−)^3H-QNB (final concentration 2 nM), 10 μl solution of test compound and 1.0 ml tissue homogenate. Triplicate samples were incubated under conditions of equilibrium, i.e., at 25° C. for 60 minutes (urinary bladder), 80 minutes (heart and cerebral cortex) or 210 minutes (parotid gland), respectively. Non-specific binding was determined in the presence of 10 μM unlabelled atropine. Incubations were terminated by centrifugation^2, and the radioactivity in the pellets was determined by liquid scintillation spectrometry^2.
(§3) IC50-values (concentration of unlabelled compound producing 50% inhibition of the receptor specific (−)^3H-QNB binding) were graphically determined from the experimental concentration-inhibition curves. Affinities, expressed as the dissociation constants Ki, were calculated by correcting the IC50 for the radioligand-induced parallel shift and differences in receptor concentration, using the method of Jacobs et al. (1975)^6. The binding parameters for (−)^3H-QNB (KD and receptor densities) used in these calculations were determined in separate series of experiments^1-3.

[2] = molecular target: muscarinic receptor (cerebral cortex); assay: Muscarinic receptor binding, (−)3H-QNB competition, cerebral cortex homogenate; conditions: guinea pig cerebral cortex, 2 nM (−)3H-QNB, 25° C., 80 minutes
Experimental: as §1, §2, §3

[3] = molecular target: Smooth muscle strips of the urinary bladder (carbachol contraction); assay: Functional in vitro study: antagonism of carbachol-induced contraction of urinary bladder smooth muscle strips; conditions: guinea pig urinary bladder strips, carbachol agonist, 60 min incubation with antagonist; read-out: KH bladder
Experimental: Male guinea pigs, weighing about 300 g, were killed by a blow on the neck and exsanguinated. Smooth muscle strips of the urinary bladder were dissected in a Krebs-Henseleit solution (pH 7.4). The strip preparations were vertically mounted between two hooks in thermostatically controlled (37° C.) organ baths (5 ml). One of the hooks was adjustable and connected to a force transducer (FT 03, Grass Instruments). The Krebs-Henseleit solution was continuously bubbled with carbogen gas (93.5% O2/6.5% CO2) to maintain the pH at 7.4. Isometric tension was recorded by a Grass Polygraph (Model 79D). A resting tension of approximately 5 mN was initially applied on each muscle strip and the preparations were allowed to stabilize for at least 45 min. The resting tension was repeatedly adjusted and the preparations were washed several times during the stabilization period.
Carbachol (carbamylcholine chloride) was used as the standard agonist. In each experiment, the viability of the preparations and the reproducibility of their contractile responses were initially tested by three consecutive additions of a submaximal concentration (3×10^−6M) of carbachol. A complete concentration-response curve to carbachol was then generated by cumulative addition of carbachol to the organ-bath (i.e., stepwise increase of the agonist concentration until the maximal contractile response was reached), followed by washing out and a resting period of at least 15 min. before a fix concentration of the test compound (antagonist) was added to the organ-bath. After 60 min. of incubation with the antagonist, a second cumulative concentration-response curve to carbachol was generated. Responses were expressed as per cent of the maximal response to carbachol. EC50-values for carbachol in the absence (control) and presence of antagonist were graphically derived and dose ratios (r) were calculated. Dissociation constants, KB, for the antagonists were calculated using equation (1)^7, where [A] is the concentration of test compound. KB=[A]/r−1 (1)

[4] = Functional in vivo study in anaesthetized cats: blood pressure, blood flow, heart rate; conditions: cat
Experimental: (§4) Adult cats were anaesthetized with mebumal (42 mg/kg) intraperitoneally. When the animal was asleep, an infusion cannula was inserted into the foreleg vein and the cat was given alpha-chloralose. During the experiment the animal was placed on an operation table warmed up with a feedback controlled electric pad. The cat was tracheotomized. For blood pressure registration, a polyethylene catheter was inserted into the femoral artery, with the tip in aorta, and connected via a three-way stopcock to a blood pressure transducer and a Grass polygraph. Heart rate was registered by connecting a tachograph to a driver amplifier which received the signal from the blood pressure transducer. Blood flow in the central mesenteric artery was measured by an ultrasound flow probe around the artery connected to a transonic blood flow meter and then to a Grass polygraph for registration of the flow. For infusion of the test substances, compounds D and A (as identified above), a polyethylene catheter was inserted into the femoral vein three-way stopcock to a syringe placed in an infusion pump (Sage instrument).
Through an incision in the proximal urethra, a catheter was inserted into the urinary bladder. At the beginning of each experiment, this catheter was connected to an open vessel, which was filled with 38° C. tempered physiological saline and placed above the animal. During this stabilization period the bladder relaxed, leading to a filling of the bladder with saline, under constant hydrostatic pressure. After the stabilization period, the bladder catheter was connected to a pressure transducer, for registration of intravesical pressure. Blood pressure, heart rate, blood flow and bladder pressure were recorded simultaneously and continuously throughout the experiment. The animals were left for at least 45 minutes to achieve steady state in cardiovascular variables before starting the experiment.
Bladder pressure was measured at 8 minutes after the end of infusion of the test substance. The surgical preparation was tested by intravenous injection of 0.25 μg/kg b.w. of noradrenalin and 0.5 μg/kg b.w. of acetylcholine.
To study the dose-response relationship of compound D identified above, the substance was administered at the doses 0.000 (physiological saline), 0.003, 0.010, 0.030 and 0.100 mg/kg, respectively, with infusion during 2 minutes and an infusion volume of 1 mL/kg. Every cat got all doses and was left to reestablish at least 45 minutes between the 0.003 and 0.010 mg/kg doses, and 60 minutes between the 0.030 and 0.100 mg/kg doses.
(§5) The results are presented in absolute values and calculated as mean value±standard deviation

[5] = system: acetylcholine-induced effect on the bladder; assay: Functional in vivo study in anaesthetized cats: bladder pressure; conditions: cat, intravenous infusion
Experimental: as §4, with “For infusion of the test substances, compounds D and A (as identified above), a polyethylene catheter was inserted into the femoral vein three-way stopcock to a syringe placed in an infusion pump (Sage instrument).” left out
Through an incision in the proximal urethra, a catheter was inserted into the urinary bladder. […] Blood pressure, heart rate, blood flow and bladder pressure were recorded simultaneously and continuously throughout the experiment. […]
Bladder pressure was measured at 8 minutes after the end of infusion of the test substance. […]
as §5

[6] = intravenous, highest dose (0.3 mg/kg)

What does the source list for Cc1ccc(O)c(C(CCN(C(C)C)C(C)C)c2ccccc2)c1 (single isomer, unassigned; (+)) [(A), (+)N,N-diisopropyl-3-(2-hydroxy-5-methylphenyl)-3-phenylpropylamine, hydrochloride]?
Ki [1]: 2.7 nM; Ki [2]: 0.8 nM; Kd [3]: 3 nM

Which results are given for CC(C)N(CCC(c1ccccc1)c1cc(CO)ccc1O)C(C)C (stereo not drawn) [(D), (+)-N,N-diisopropyl-3-(2-hydroxy-5-hydroxymethylphenyl)-3-phenylpropylamine(+)mandelic acid salt]?
Ki [1]: 4.5 nM; Ki [2]: 0.7 nM; Kd [3]: 4.1 nM; increase of diastolic blood pressure ([4]; intravenous, 0,3 mg/kg): 10%; increase of systolic blood pressure ([4]; intravenous, 0,3 mg/kg): 6%; increase of the blood flow in superior mesenterica artery ([4]; intravenous, 0.003 mg/kg): 8%; increase of the blood flow in superior mesenterica artery ([4]; intravenous, 0.01 mg/kg): 17%; increase of the blood flow in superior mesenterica artery ([4]; intravenous, 0.03 mg/kg): 21%; effect on the blood pressure ([4]; intravenous, doses other than 0,3 mg/kg): little or no effect; decrease of heart rate [4, 6]: 9%; increase in blood flow [4, 6]: 10%; inhibition of the acetylcholine-induced effect on the bladder (bladder pressure) ([5]; bladder pressure 8 minutes after end of infusion): dose-dependent inhibition; efficiency of bladder pressure inhibition relative to prior art compound A ([5]; versus compound A): about ten times more efficient

With CC(C)N(CCC(c1ccccc1O)c1ccccc1O)C(C)C [(B), N,N-diisopropyl-3-bis-(2-hydroxyphenyl)propylamine hydrochloride] as the molecule, how does the Ki [1] read?
Its Ki is 10.2 nM.

And the Ki [2]?
Its Ki is 1.5 nM.

With CC(C)N(CCC(c1ccccc1O)c1cc(Cl)ccc1O)C(C)C (single isomer, unassigned; (+)) [(C), (+)N,N-diisopropyl-3-(5-chloro-2-hydroxyphenyl)-3-(2-hydroxyphenylpropylamine, hydrochloride] as the molecule, how does the Ki [1] read?
The Ki was 2.5 nM.

What about the Ki [2] of the same molecule?
The Ki was 0.4 nM.

And the Kd [3]?
Its Kd is 2.6 nM.
